One test concerns mouse. As to the kind of experiment: micro-CT bone formation assay in mice for SOST antagonist candidates. The test is classed as in vivo. Particulars: test vs control solution, complete dosing schedule. The source says: Compounds useful in the methods of the present invention can be identified via a variety of methods known to one of skill in the art. Several exemplary methods for identifying such antagonists are described herein, including cell-based and in vitro techniques (Journal of Bone and Mineral Research 2006, 21(11), 1738-1749). A general method of identifying SOST antagonists involves evaluating the effects of antagonist candidates on bone formation under controlled conditions. Preferably bone formation is determined using micro-CT techniques on live animals. Preferred animals include rodents, more preferred are primates. Femur, tibia and vertebrae bones are particularly useful subjects for such study.
Briefly, the test animal is treated with a predetermined dose of a SOST antagonist candidate. […]
Once the dosing schedule has been completed, both test and control animals are examined to determine the quantity of bone formation present. […] Where necessary, levels of bone formation can be calculated by determining the volume of bone formation present in each animal. […]
For example, the mouse test animal is treated with a predetermined dose of a SOST antagonist candidate for a complete dosing schedule. […] Once the dosing schedule has been completed, both test and control animals are examined with sacrifice using micro-CT to determine the quantity of bone formation present.

Another test concerns C57BL/6 mice. As to the kind of experiment: Bone growth in four month old male C57BL/6 mice, daily i.p. for 30 days (uCT, histomorphometry, pQCT). The test is classed as in vivo, mouse. The protocol:
Study endpoints included measurement of trabecular lumbar vertebrae 5 (LVB5) by uCT, showing 65% increase in bone volume over baseline at 75 mg/kg (FIG. 2).

Another test has as its system Wnt pathway. As to the kind of experiment: Wnt pathway modulation to promote bone growth (FIG. 1). To be noted: doses of 2.5 ng (low), 60 ng (medium), 125 ng (high).

`COc1cc2c(cc1O)C[C@H]1c3c(cc(O)c(OC)c3-2)CCN1C` [(S)-boldine]: in the test with mouse, the “bone growth (quantity of bone formation by micro-CT)” value is given as “promoting bone growth”. Also, the “increase in BV/TV of femur over baseline controls, pQCT” value in the test with C57BL/6 mice (60 mg/kg) was 8%. In the test with C57BL/6 mice (75 mg/kg i.p. daily for 30 days, male C57BL/6 mice, FIG. 2), the “increase in bone volume over baseline, trabecular lumbar vertebrae 5 (LVB5) by uCT” value is recorded as 65%. Besides, the “increase in BV/TV in trabecular long bone over saline controls, histomorphometry” value with C57BL/6 mice (all animals in both L (0.75 mg/kg) and H (75 mg/kg) groups, i.p. daily 30 days, p=0.05) turned out to be 78%. Besides, in the test on Wnt pathway, the “modulating the Wnt pathway to promote bone growth” value is “modulating the Wnt pathway to promote bone growth”.
